In patent publication US20160045612A1, “FUNCTIONALIZED NANOPARTICLES FOR MEDICAL TREATMENTS” (UNIVERSITY OF MASSACHUSETTS, priority 2013, published 2016):
Structures can show the parent of a compound that is named as a salt.

System: engineered Str^r mutant E. coli ORN 208
Experiment: minimal inhibitory concentration (MIC) against streptomycin-resistant E. coli
Assay type: cell-based, Escherichia coli
Method: The diverse particle size affects inhibition and control. Silica nanoparticles were synthesized with an average of 80, 50 and 30 nm. Streptomycin was conjugated via photocoupling method through perfluorophenyl azide (PFPA) chemistry. The MIC for free streptomycin sulfate was recorded as a high 2.0 mg/mL for an engineered Str^r mutant E. coli ORN 208.
It is reasonable to hypothesize that the more nanoparticles internalize into the bacteria the greater the effect of the antibiotic. […] The comparative difference of the streptomycin that can exert MIC is shown in FIG. 9 for the engineered Str^r mutant E. coli ORN 208 .

## [H]/N=C(/N)N[C@H]1[C@H](O)[C@@H](O)[C@H](O[C@@H]2O[C@@H](C)[C@](O)(C=O)[C@H]2O[C@@H]2O[C@@H](CO)[C@H](O)[C@@H](O)[C@@H]2NC)[C@@H](N/C(N)=N\[H])[C@@H]1O [free streptomycin sulfate, Streptomycin sulfate]
Escherichia coli, read-out: minimum inhibitory concentration (MIC)
  MIC: 2000 µg/mL
Streptomycin resistant E. coli, MIC as streptomycin
  minimum inhibitory concentration (MIC): 2000 µg/mL
